Test results: article PMC10794144, “A novel antibiotic class targeting the lipopolysaccharide transporter” (Nature, 2024)

Legend:
[1] = system: A. baumannii; test: MIC, broth microdilution in CAMHB supplemented with human serum, read at 100% growth inhibition; assay type: cell-based, Acinetobacter baumannii; conditions: Acinetobacter baumannii, ACC00535; CAMHB + 20% HS; read-out: MIC
Procedure: MIC determinations were performed using the broth microdilution method and in line with CLSI guidelines M07 and M100 (refs. [37],[38]). Bacterial inocula were prepared by diluting a 0.5 McFarland suspension in CAMHB or lysogeny broth (LB) specifically for A. baylyi isolates. […] MIC values of all of the tested antibiotics were read as the lowest compound concentration inhibiting bacterial growth by naked eye or beyond which the OD600 ceased to decrease.

[2] = Five-day repeat dose tolerability study; assay type: in vivo, rat; conditions: for Clinical observations: male Wistar rats, n = 4; for Clinical chemistry / Coagulation / Haematology: 5 days
Procedure: Assessment of tolerability was based on mortality, in-life observations, body weight, food consumption and clinical pathology during the in-life phase. Moreover, gross pathology and histopathology were performed at unscheduled or scheduled euthanasia on day 6.

[3] = system: A. baumannii; test: Bacterial phenotypic fingerprint profiling; assay type: cell-based, Acinetobacter baumannii; conditions: random forest model
Procedure: Sample preparation and analysis was conducted as previously described[26] for A. baumannii, with the generated and analysed dataset consisting of three independent experiments, n = 3, as the only modification to the protocol.
For the random forest analysis data proximity analysis from 4x and 8x LOED are pooled and the number of datapoints are reduced by down sampling to be equal for all reference conditions the maximal projection of the analysis. b, In the right panel an out-of-bag validation of the random forest classification model is indicated for the reference compounds. […] The degree of frequency of matching prediction correspond to the length of the individual bar segment, where a longer segment represents a higher similarity. […] Source Data

## CN1C(=O)[C@H](CCCCN)NC(=O)[C@H](CCCN)NCc2cccnc2Sc2c(Cl)ccc(Cl)c2CNC(=O)[C@@H]1Cc1c[nH]c2ccccc12 [RO7075573]
[1]
  MIC: 0.12 µg/mL
[2]; 0.6 mg/kg slow IV once daily for 5 days
  Clinical observations: Slightly discolored tail after dosing
[2]; 6 mg/kg slow IV once daily for 5 days
  Clinical observations: Slightly discolored tail after dosing, red extremities on D2 after dosing, prone posture, rolling gait, hypoactivity, laboured respiration, reduced food consumption – euthanized for humane reasons D2
[2]; rats, 0.6 mg/kg IV
  Clinical chemistry: No relevant changes
  Coagulation: No change
  Haematology: No change
[2]; rats, 6 mg/kg IV
  Clinical chemistry: Decreased HDL, triglyceride, cholesterol. Increased GLDH, AST and ALAT, CK, BUN, creatine, phosphorus, haptoglobin
  Coagulation: Decreased prothrombin time and increased aPTT
  Haematology: Decrease in haemoglobin and haematocrit, increase in neutrophils
[2]; rats, after intravenous administration
  Decrease in lipid parameters (cholesterol, triglycerides, HDL): > 40%
[2]; rats, slow IV once daily for 5 days
  MTD: 0.6 mg/kg
[3]
  Similarity towards RO7202110: > 70%
